Results published in US9802996B2, “Glycosylated polypeptide and drug composition containing said polypeptide” (Glytech, Inc., priority 2011, dated 2017).

How the values were obtained:
[1] = system: rat gastrointestinal obstruction model; test: Gastrointestinal obstruction model: blood parameters (amylase, LDH, CPK); format: in vivo, rats; settings: for LDH activity compared to the vehicle / amylase activity compared to the vehicle: rats, blood 1 hour after administration; for Amylase / CPK / LDH: rat gastrointestinal obstruction model, blood collected 1 hour after subcutaneous administration of 40 μM solution at 1 mL/kg, 18 hours after surgery
Protocol: This experimental line was carried out as a test line to evaluate the promotion of intestinal fluid absorption or the secretory suppressing action, using the change in the intestinal fluid weight in the jejunum after bowel obstruction as an indicator. Moreover, blood parameters of deviation enzymes amylase (pancreas), lactate dehydrogenase (LDH, liver), and creatine phosphokinase (CPK, skeletal muscle, cardiac muscle etc.) were measured as indicators of tissue disorders.
The present test was consigned to Mitsubishi Chemical Medience Corporation and carried out. […] Anesthesia was introduced with inhalation of 2% isoflurane and laughing gas:oxygen=7:3, and this was maintained throughout the surgery. A median incision was made in the abdomen, and the jejunum at about 10 cm from the musculus suspensorius duodeni was ligated with a surgical suture. Then, the incision site was promptly sutured, and the rats were fasted until compound administration. In the sham treatment group, ligation of the jejunum was not performed, but the treatment of suturing the incision site after a median incision was made in the abdomen was performed.
(§1) Eighteen hours after the gastrointestinal obstruction surgery, this was subcutaneously administered into the dorsal cervix at a dosage of 1 mL/kg with a glass syringe and a 25 G injection needle (all from Terumo Corporation). As the vehicle group, saline without glycosylated polypeptide was similarly administered.
One hour after compound administration, a median incision was made in the abdomen under inhalation anesthesia, and 1.5 mL of blood was collected from the abdominal vena cava.
The measuring methods employed were BG5B, UV-rate, and JSCC methods, respectively.

[2] = system: rat gastrointestinal obstruction model; test: Drug effect test in gastrointestinal obstruction model: intestinal fluid weight; format: in vivo, rats; settings: for intestinal fluid weight compared to the vehicle: rats, subcutaneous 40 nmol/kg, 1 hour after administration; for Intestinal fluid weight: jejunum wet weight-dry weight, 40 μM solution 1 mL/kg subcutaneous 18 h after surgery, one hour after administration
Description: Anesthesia was introduced with inhalation of 2% isoflurane and laughing gas:oxygen=7:3, and this was maintained throughout the surgery. A median incision was made in the abdomen, and the jejunum at about 10 cm from the musculus suspensorius duodeni was ligated with a surgical suture. Then, the incision site was promptly sutured, and the rats were fasted until compound administration. In the sham treatment group, ligation of the jejunum was not performed, but the treatment of suturing the incision site after a median incision was made in the abdomen was performed.
as §1
One hour after compound administration, a median incision was made in the abdomen under inhalation anesthesia, and 1.5 mL of blood was collected from the abdominal vena cava. Then, the ligated jejunum on the musculus suspensorius duodeni side was resected. The fluid and blood on the jejunum surface were removed with a paper towel, nerves, blood vessels, and fat attached to the jejunum was removed, this was cut into 6 cm lengths, and wet weight was measured. This was then dried at 36 degrees for 24 hours, and dry weight was measured. The intestinal fluid weight (mg) was calculated by wet weight-dry weight.

[3] = system: growth hormone (GH) production; test: GH production suppression test with rats; format: in vivo; settings: for GH production suppression activity: administration of 10 or 100 nmol/kg;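 for all read-outs here: plasma GH measured by EIA in blood drawn 5 min after intravenous GRF stimulus, given 1 h after compound dosing, compared against saline-treated vehicle rats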
Protocol: This experimental line was carried out as a test line that can evaluate the pharmacological action of the glycosylated form on SSTR and its residence in blood after administration, with blood GH production amount as an indicator.
Moreover, GRF (GH releasing hormone, Growth hormone releasing factor) was used as the GH release enhancer. […] As heparin employed as the anticoagulant when collecting blood, Japanese Pharmacopeia heparin sodium injectable solution (Lot. B084, from Mochida Pharmaceutical Co., Ltd.) was used directly as stock solution.
As the control group, saline without glycosylated polypeptide was similarly administered (vehicle group). […] One hour after administration of the glycosylated form, i.e. after 50 minutes or more had passed under anesthesia, GRF was administered as the GH release enhancer to the tail vain at a dosage of 1 mL/kg with a glass syringe and an injection needle. Five minutes after administration of GRF, blood was collected from the rat cervical vein with a glass syringe containing heparin and an injection needle. 0.4 mL of the collected blood was left on ice for 20 minutes or more, then centrifuged (1,870×g, 4° C., 10 minutes), and 100 μL of the supernatant was taken as the plasma sample. As blank plasma, plasma obtained by similarly treating the blood collected from untreated rat cervical vein was employed. Plasma samples were frozen in storage until employed for measurement.
Measurement of GH concentration in the plasma sample obtained in the above 89-2 was performed with rat Growth Hormone EIA kit from SPI-Bio (SPI-Bio, A05104). The plasma sample was diluted with the assay buffer supplied in the EIA kit to 20, 100, and 500-folds as measurement samples. […] By multiplying the results obtained and the dilution ratio, the GH concentration was calculated.

SSTR1-SSTR5 = test: Competitive binding assay, statements over all receptors; parameters: species or system Human; settings: Example 69-1, range over SSTR1-SSTR5
[4] = Pharmacokinetics test with rats (intravenous and subcutaneous administration)
Protocol: 0.2 mL of the collected blood was promptly mixed with 0.2 mL of the aprotinin-containing EDTA-PBS solution prepared in the above 70-1, and left on ice for 30 minutes or more. […] As blank plasma, plasma obtained by similarly treating the blood collected from untreated rat cervical vein was employed. Plasma samples were frozen in storage until employed for measurement.
The standard solution for creating a standard curve was prepared as follows. First, the blank plasma obtained in the above 70-2 was diluted with the assay buffer supplied in the EIA kit similarly to the plasma sample, and this was used as the assay buffer for standard solution preparation (for example, when diluting the plasma sample to 100-fold, 1/100 amount of blank plasma was added to the assay buffer supplied in the EIA kit, and this was used as the assay buffer for standard solution preparation).
Moreover, the predicted initial concentration (C0) was determined by the extrapolation method for intravenous administration, t1/2 and MRT were calculated, and the maximum plasma concentration (Cmax) was determined from the actual value for subcutaneous administration.
Moreover, the parameters obtained were employed to calculate bioavailability from the following mathematical formula. BA (%)=(AUC(sc)/Dose(sc))/(AUC(iv)/Dose(iv))
AUC(sc): AUC for subcutaneous administration (min·nM)
Dose(sc): Administration dose for subcutaneous administration (nmol/kg)
AUC(iv): AUC for intravenous administration (min·nM)
Dose(iv): Administration dose for intravenous administration (nmol/kg)

[5] = Table 8, plasma GH, dose 1 nmol/kg
[6] = Table 8, plasma GH, dose 3 nmol/kg
[7] = Table 8, plasma GH, dose 30 nmol/kg
[8] = intravenous administration, Table 5A
[9] = subcutaneous administration, Table 5A
[10] = Table 8, plasma GH, dose 10 nmol/kg
[11] = Table 7, plasma GH, dose 1 nmol/kg subcutaneous, GRF 1 hour after administration, blood 5 min after GRF
[12] = Table 7, plasma GH, dose 10 nmol/kg subcutaneous, GRF 1 hour after administration, blood 5 min after GRF
[13] = Table 8, plasma GH, dose 100 nmol/kg

Compound: C[C@@H](O)[C@@H]1NC(=O)[C@H](CCCCN)NC(=O)[C@@H](Cc2c[nH]c3ccccc23)NC(=O)[C@H](Cc2ccccc2)NC(=O)[C@@H](NC(=O)[C@H](N)Cc2ccccc2)CSSC[C@@H](C(=O)N[C@H](CO)[C@@H](C)O)NC1=O [Octreotide, reference compound]
- LDH activity compared to the vehicle [1]: low value compared to the vehicle
- amylase activity compared to the vehicle [1]: equivalent to the vehicle
- intestinal fluid weight compared to the vehicle [2]: confirmed to have this effect

Compound: A9C(disialo)-SRIF28 [Example 3]
- GH production suppression effect ([3]; rats, subcutaneous, 10 nmol/kg): 95-99%

Compound: C(disialo)-R-K-SRIF14 [Example 18]
- Amylase [1]: 985 ± 238 IU/L
- CPK [1]: 415 ± 137 IU/L
- LDH [1]: 228 ± 155 IU/L
- LDH activity compared to the vehicle [1]: low value compared to the vehicle
- amylase activity compared to the vehicle [1]: low value compared to the vehicle
- GH [3, 5]: 912 ng/mL
- GH [3, 6]: 291 ng/mL
- GH [3, 7]: 12 ng/mL
- GH production suppression effect ([3]; rats, subcutaneous, 10 nmol/kg): 95-99%
- affinity towards SSTR1-SSTR5, folds higher than S1C(disialo)-SRIF28 (SSTR1-SSTR5): 0.7-2.4 folds
- Intestinal fluid weight [2]: 584 ± 95 mg
- intestinal fluid weight compared to the vehicle [2]: increase in the intestinal fluid weight compared to the vehicle

Compound: E12C(disialo)-SRIF28 [Example 4]
- GH production suppression effect ([3]; rats, subcutaneous, 10 nmol/kg): 95-99%

Compound: K14C(disialo)-SRIF28 [Example 6]
- GH production suppression activity ([3]; rats): showed GH production suppression activity

Compound: N5C(disialo)-SRIF28 [Example 2]
- GH production suppression effect ([3]; rats, subcutaneous, 10 nmol/kg): 95-99%

Compound: R13C(disialo)-SRIF28 [Example 5]
- GH production suppression activity ([3]; rats): showed GH production suppression activity

Compound: S1-2C(asialo)-SRIF28 [Example 28]
- GH production suppression effect ([3]; rats, subcutaneous, 10 nmol/kg): 70-99%
- affinity towards SSTR1-SSTR5, folds higher than S1C(disialo)-SRIF28 (SSTR1-SSTR5): 1.7-2.9 folds
- intestinal fluid weight compared to the vehicle [2]: increase in the intestinal fluid weight compared to the vehicle

Compound: S1-5C(disialo)-SRIF28 [Example 34]
- AUC [4, 8]: 6016 ± 873 nM·min
- C0 [4, 8]: 752 ± 81.4 nM
- MRT [4, 8]: 0.817 ± 0.101 h
- t1/2 [4, 8]: 1.66 ± 0.233 h
- AUC for subcutaneous administration, folds of S1C(disialo)-SRIF28 ([4]; subcutaneous): 1.8-3.1 folds
- AUC [4, 9]: 5524 ± 633 nM·min
- Cmax [4, 9]: 13.5 ± 2.85 nM
- MRT [4, 9]: 6.48 ± 0.833 h
- t1/2 [4, 9]: 4.52 ± 0.645 h
- bioavailability (BA) ([4]; subcutaneous vs intravenous AUC): 92%
- BA ([4]; subcutaneous vs intravenous administration, Table 5A): 92%
- GH [3, 10]: 842 ng/mL
- GH production suppression activity ([3]; rats): showed GH production suppression activity

Compound: S1C(asialo)-SRIF28 [Example 27]
- GH production suppression effect ([3]; rats, subcutaneous, 10 nmol/kg): 70-99%

Compound: S1C(disialo(Bn))-SRIF28 [Example 61]
- GH production suppression effect ([3]; rats, subcutaneous, 10 nmol/kg): 95-99%

Compound: S1C(disialo(amide))-SRIF28 [Example 60]
- GH production suppression effect ([3]; rats, subcutaneous, 10 nmol/kg): 70-99%

Compound: S1C(disialo(aminoethylamide))-SRIF28 [Example 59]
- GH production suppression effect ([3]; rats, subcutaneous, 10 nmol/kg): 70-99%

Compound: S1C(disialo)-D-Trp22-SRIF28 [Example 15]
- GH production suppression effect ([3]; rats, subcutaneous, 10 nmol/kg): 95-99%

Compound: S1C(disialo)-SRIF28 [Example 1]
- Amylase [1]: 1164 ± 224 IU/L
- CPK [1]: 455 ± 202 IU/L
- LDH [1]: 338 ± 97 IU/L
- amylase activity compared to the vehicle [1]: low value compared to the vehicle
- GH [3, 11]: 490 ng/mL
- GH [3, 12]: 17.1 ng/mL
- GH [3, 5]: 787 ng/mL
- GH [3, 6]: 182 ng/mL
- GH [3, 10]: 15 ng/mL
- GH [3, 7]: 8 ng/mL
- GH [3, 13]: 7 ng/mL
- dose from which GH production was suppressed ([3]; rats, subcutaneous): ≥ 1 nmol/kg
- GH production suppression effect ([3]; rats, subcutaneous, 3-10 nmol/kg): 82-99%
- Intestinal fluid weight [2]: 630 ± 83 mg
- intestinal fluid weight compared to the vehicle [2]: increase in the intestinal fluid weight compared to the vehicle

Compound: S1C(disialo)•N5C(disialo)-SRIF28 [Example 21]
- GH [3, 11]: 776 ng/mL
- GH [3, 12]: 181 ng/mL
- GH [3, 5]: 776 ng/mL
- GH [3, 10]: 181 ng/mL
- GH production suppression activity ([3]; rats): showed GH production suppression activity

Compound: S1C(disialo)•N5C(disialo)•A9C(disialo)-SRIF28 [Example 25]
- GH [3, 12]: 833 ng/mL
- GH ([3]; Table 7, plasma GH, dose 100 nmol/kg subcutaneous, GRF 1 hour after administration, blood 5 min after GRF): 151 ng/mL
- GH [3, 13]: 151 ng/mL
- GH production suppression activity ([3]; rats): showed GH production suppression activity

Compound: S1C(monosialo)-SRIF28 [Example 26]
- GH production suppression effect ([3]; rats, subcutaneous, 10 nmol/kg): 70-99%
